Results from US20250255882A1, “TREATMENT OF CARDIAC CONDITION RELATED COGNITIVE DYSFUNCTION” (The Trustees of Columbia University in the City of New York, priority 2024, published 2025).

Columns and labels:
[1] = system: mouse model of HF (myocardial infarction, MI); experiment: MWM test (long-term spatial learning and memory) with probe trial; assay type: in vivo; settings: MI mice, treated; for latency to find and reach the hidden platform: day 4 training trials, MI 30±1 s, SHAM 21±2 s
Experimental: (§1) One-way analysis of variance (ANOVA) was used to compare the difference between the six groups in FIGS. 2B, 2C, 2E and 2F. Tukey's test was used for multiple comparisons; two-way ANOVA was used in FIG. 2D. […] All statistical tests were two sided with the data derived from biologically independent samples.
A MWM test was performed to assess hippocampal-dependent long-term spatial learning and memory.
A probe trial was performed on day 5 of the MWM test.

[2] = blood-brain barrier crossing
MI mice [3] = experiment: hippocampal FDG metabolism by microPET; assay type: in vivo, mouse; settings: treated MI mice; percentage of the FDG uptake in the SHAM mice (SHAM 100±3, MI 70±3)
From the text: (§2) FIG. 4A is a schematic representation of a hippocampal brain slice for LTP experiments and the positioning of the stimulating and recording electrodes.
Thereafter, [^18F]fluorodeoxyglucose (FDG) with positron emission tomography (PET) was used to measure energy consumption in neurons, which reflects neuronal communication signals and the integrative local neuronal activity. Deteriorating brain glucose metabolism measured by FDG-PET has been used as a clinical marker for Alzheimer's disease diagnosis. Thus, hippocampal FDG metabolism was evaluated in the experimental groups (FIGS. 4E and 4F).

adrenergic pathway = experiment: hippocampal norepinephrine levels and PKA activity; assay type: in vivo, mouse; settings: treated versus untreated MI mice
Experimental: The hippocampal levels of norepinephrine and PKA activity were measured.

RyR2 [4] = biological target: RyR2 (Homo sapiens, UniProt Q92736); settings: previously identified binding site; cited from earlier work
RyR2 [5] = biological target: RyR2 (Mus musculus, UniProt E9Q401); experiment: caffeine-induced Ca2+ release in primary hippocampal neurons; assay type: cell-based; set-up: representative images of 14-d cultured hippocampal neurons stimulated with 10 mM caffeine; endogenous in cells; host or cells: primary hippocampal neurons, 14 d in culture; settings: 10 mM caffeine; hippocampal neurons treated with the adrenergic agonist alone
Experimental: FIG. 5A presents representative images of 14-d cultured hippocampal neurons stimulated with 10 mM caffeine. For each condition, the Ca^2+ levels are shown at baseline, during stimulation and at recovery. […] Individual values are shown with the mean±s.e.m. […] Scale bar, 10 μm. A reduction in caffeine-induced Ca^2+ release indicates a Ca^2+ depleted ER due to persistent RyR2-mediated Ca^2+ leak. Data are derived from biologically independent samples. All statistical tests were two sided.
To determine whether the activation of the adrenergic pathway indeed causes neuronal RyR2-mediated ER Ca^2+ leak, caffeine (10 mM), a well characterized RyR agonist, was used to assess RyR2 function specifically in hippocampal neurons without interference of other cell types such as glial cells or astrocytes.

TGF-β pathway = experiment: immunoblots of TGF-β, phosphorylated SMAD3 and NOX2 binding to RyR2 in hippocampi; assay type: in vivo, mouse; settings: hippocampi of treated MI mice
From the text: FIG. 12A includes immunoblots showing expressing levels of TGF-β, phosphorylated SMAD3, total SMAD3, and NOX2 binding to RyR2 in the hippocampi of controls (n=4) and HF patients (n=9). FIG. 12B includes bar graphs depicting the ratio of TGF-β expression normalized to GAPDH, phosphorylated SMAD3 to total SMAD3 and NOX2 binding to RyR2 (IP RyR2). The same quantity of proteins was loaded on two separate gels and blotted separately for SMAD3 and pSMAD3. Individual values are shown with mean±SEM (t-test * p<0.05, Controls vs. HF patients). […] FIG. 12D includes bar graphs depicting the ratio of TGF-β expression normalized to GAPDH, phosphorylated SMAD3 to total SMAD3 and NOX2 binding to RyR2 (IP RyR2). The same quantity of proteins was loaded on two separate gels and blotted separately for SMAD3 and pSMAD3. Individual values are shown with mean±SEM. […] All statistical tests were two-sided. Data are derived from biologically independent samples.
TGF-β has been implicated in CNS disorders including Alzheimer's disease.

[6] = system: mouse model of HF (myocardial infarction, MI); experiment: novel object recognition test (hippocampal-dependent short-term memory); assay type: in vivo; settings: MI mice, treated; MI 15%±4%, SHAM 48%±5%
From the text: as §1
Next, a novel object recognition test was used to evaluate hippocampal-dependent short-term memory. (see Liu, X. et al. Role of leaky neuronal ryanodine receptors in stress-induced cognitive dysfunction. Cell 150, 1055-1067 (2012); and Bevins, R. A. & Besheer, J. Object recognition in rats and mice: a one-trial non-matching-to-sample learning task to study ‘recognition memory’. Nat. Protoc. 1, 1306-1311 (2006)).

[7] = system: mouse model of HF (myocardial infarction, MI); experiment: open field test and elevated plus maze (EPM) test; assay type: in vivo; settings: MI mice, treated
From the text: as §1, with “FIGS. 2A-2G illustrate a mouse model of heart failure (myocardial infarction) that is associated with cognitive dysfunction. […] One-way” for “One-way”
Because of the complexity of the clinical manifestation of HF patients, the mouse model of HF (myocardial infarction, MI) was used with reduced ejection fraction to evaluate the mechanisms of CD. The open field test and elevated plus maze (EPM) test were used to evaluate the behavioral phenotypes, and spontaneous exploratory activity in the mice. In the open field test, mice were placed at the center of a chamber and allowed to explore for 6 min. […] In the EPM test, MI mice spent […] time in the open arms of the EPM (FIG. 2B) compared to SHAM (0.22±0.04 versus 0.14±0.02; P<0.05). […] As a control, the effects of a Rycal®, ARM036, was studied.

MI mice [8] = experiment: long-term potentiation (fEPSPs) in hippocampal slices; assay type: in vivo, mouse; settings: slices from treated MI mice; MI decreased LTP versus SHAM
Experimental: as §2
Field excitatory postsynaptic potentials (fEPSPs) were evaluated at the Schaffer collateral using a bipolar electrode placed at the CA3 and recording at the CA1 (FIG. 4A). […] Importantly, MI and treatment with the various compounds after MI had no effect on basal synaptic transmission determined by the input-output curves (I-O; P=0.5; FIG. 4D).

RyR2 (Mus musculus, UniProt E9Q401), sequence (E9Q401 whole entry): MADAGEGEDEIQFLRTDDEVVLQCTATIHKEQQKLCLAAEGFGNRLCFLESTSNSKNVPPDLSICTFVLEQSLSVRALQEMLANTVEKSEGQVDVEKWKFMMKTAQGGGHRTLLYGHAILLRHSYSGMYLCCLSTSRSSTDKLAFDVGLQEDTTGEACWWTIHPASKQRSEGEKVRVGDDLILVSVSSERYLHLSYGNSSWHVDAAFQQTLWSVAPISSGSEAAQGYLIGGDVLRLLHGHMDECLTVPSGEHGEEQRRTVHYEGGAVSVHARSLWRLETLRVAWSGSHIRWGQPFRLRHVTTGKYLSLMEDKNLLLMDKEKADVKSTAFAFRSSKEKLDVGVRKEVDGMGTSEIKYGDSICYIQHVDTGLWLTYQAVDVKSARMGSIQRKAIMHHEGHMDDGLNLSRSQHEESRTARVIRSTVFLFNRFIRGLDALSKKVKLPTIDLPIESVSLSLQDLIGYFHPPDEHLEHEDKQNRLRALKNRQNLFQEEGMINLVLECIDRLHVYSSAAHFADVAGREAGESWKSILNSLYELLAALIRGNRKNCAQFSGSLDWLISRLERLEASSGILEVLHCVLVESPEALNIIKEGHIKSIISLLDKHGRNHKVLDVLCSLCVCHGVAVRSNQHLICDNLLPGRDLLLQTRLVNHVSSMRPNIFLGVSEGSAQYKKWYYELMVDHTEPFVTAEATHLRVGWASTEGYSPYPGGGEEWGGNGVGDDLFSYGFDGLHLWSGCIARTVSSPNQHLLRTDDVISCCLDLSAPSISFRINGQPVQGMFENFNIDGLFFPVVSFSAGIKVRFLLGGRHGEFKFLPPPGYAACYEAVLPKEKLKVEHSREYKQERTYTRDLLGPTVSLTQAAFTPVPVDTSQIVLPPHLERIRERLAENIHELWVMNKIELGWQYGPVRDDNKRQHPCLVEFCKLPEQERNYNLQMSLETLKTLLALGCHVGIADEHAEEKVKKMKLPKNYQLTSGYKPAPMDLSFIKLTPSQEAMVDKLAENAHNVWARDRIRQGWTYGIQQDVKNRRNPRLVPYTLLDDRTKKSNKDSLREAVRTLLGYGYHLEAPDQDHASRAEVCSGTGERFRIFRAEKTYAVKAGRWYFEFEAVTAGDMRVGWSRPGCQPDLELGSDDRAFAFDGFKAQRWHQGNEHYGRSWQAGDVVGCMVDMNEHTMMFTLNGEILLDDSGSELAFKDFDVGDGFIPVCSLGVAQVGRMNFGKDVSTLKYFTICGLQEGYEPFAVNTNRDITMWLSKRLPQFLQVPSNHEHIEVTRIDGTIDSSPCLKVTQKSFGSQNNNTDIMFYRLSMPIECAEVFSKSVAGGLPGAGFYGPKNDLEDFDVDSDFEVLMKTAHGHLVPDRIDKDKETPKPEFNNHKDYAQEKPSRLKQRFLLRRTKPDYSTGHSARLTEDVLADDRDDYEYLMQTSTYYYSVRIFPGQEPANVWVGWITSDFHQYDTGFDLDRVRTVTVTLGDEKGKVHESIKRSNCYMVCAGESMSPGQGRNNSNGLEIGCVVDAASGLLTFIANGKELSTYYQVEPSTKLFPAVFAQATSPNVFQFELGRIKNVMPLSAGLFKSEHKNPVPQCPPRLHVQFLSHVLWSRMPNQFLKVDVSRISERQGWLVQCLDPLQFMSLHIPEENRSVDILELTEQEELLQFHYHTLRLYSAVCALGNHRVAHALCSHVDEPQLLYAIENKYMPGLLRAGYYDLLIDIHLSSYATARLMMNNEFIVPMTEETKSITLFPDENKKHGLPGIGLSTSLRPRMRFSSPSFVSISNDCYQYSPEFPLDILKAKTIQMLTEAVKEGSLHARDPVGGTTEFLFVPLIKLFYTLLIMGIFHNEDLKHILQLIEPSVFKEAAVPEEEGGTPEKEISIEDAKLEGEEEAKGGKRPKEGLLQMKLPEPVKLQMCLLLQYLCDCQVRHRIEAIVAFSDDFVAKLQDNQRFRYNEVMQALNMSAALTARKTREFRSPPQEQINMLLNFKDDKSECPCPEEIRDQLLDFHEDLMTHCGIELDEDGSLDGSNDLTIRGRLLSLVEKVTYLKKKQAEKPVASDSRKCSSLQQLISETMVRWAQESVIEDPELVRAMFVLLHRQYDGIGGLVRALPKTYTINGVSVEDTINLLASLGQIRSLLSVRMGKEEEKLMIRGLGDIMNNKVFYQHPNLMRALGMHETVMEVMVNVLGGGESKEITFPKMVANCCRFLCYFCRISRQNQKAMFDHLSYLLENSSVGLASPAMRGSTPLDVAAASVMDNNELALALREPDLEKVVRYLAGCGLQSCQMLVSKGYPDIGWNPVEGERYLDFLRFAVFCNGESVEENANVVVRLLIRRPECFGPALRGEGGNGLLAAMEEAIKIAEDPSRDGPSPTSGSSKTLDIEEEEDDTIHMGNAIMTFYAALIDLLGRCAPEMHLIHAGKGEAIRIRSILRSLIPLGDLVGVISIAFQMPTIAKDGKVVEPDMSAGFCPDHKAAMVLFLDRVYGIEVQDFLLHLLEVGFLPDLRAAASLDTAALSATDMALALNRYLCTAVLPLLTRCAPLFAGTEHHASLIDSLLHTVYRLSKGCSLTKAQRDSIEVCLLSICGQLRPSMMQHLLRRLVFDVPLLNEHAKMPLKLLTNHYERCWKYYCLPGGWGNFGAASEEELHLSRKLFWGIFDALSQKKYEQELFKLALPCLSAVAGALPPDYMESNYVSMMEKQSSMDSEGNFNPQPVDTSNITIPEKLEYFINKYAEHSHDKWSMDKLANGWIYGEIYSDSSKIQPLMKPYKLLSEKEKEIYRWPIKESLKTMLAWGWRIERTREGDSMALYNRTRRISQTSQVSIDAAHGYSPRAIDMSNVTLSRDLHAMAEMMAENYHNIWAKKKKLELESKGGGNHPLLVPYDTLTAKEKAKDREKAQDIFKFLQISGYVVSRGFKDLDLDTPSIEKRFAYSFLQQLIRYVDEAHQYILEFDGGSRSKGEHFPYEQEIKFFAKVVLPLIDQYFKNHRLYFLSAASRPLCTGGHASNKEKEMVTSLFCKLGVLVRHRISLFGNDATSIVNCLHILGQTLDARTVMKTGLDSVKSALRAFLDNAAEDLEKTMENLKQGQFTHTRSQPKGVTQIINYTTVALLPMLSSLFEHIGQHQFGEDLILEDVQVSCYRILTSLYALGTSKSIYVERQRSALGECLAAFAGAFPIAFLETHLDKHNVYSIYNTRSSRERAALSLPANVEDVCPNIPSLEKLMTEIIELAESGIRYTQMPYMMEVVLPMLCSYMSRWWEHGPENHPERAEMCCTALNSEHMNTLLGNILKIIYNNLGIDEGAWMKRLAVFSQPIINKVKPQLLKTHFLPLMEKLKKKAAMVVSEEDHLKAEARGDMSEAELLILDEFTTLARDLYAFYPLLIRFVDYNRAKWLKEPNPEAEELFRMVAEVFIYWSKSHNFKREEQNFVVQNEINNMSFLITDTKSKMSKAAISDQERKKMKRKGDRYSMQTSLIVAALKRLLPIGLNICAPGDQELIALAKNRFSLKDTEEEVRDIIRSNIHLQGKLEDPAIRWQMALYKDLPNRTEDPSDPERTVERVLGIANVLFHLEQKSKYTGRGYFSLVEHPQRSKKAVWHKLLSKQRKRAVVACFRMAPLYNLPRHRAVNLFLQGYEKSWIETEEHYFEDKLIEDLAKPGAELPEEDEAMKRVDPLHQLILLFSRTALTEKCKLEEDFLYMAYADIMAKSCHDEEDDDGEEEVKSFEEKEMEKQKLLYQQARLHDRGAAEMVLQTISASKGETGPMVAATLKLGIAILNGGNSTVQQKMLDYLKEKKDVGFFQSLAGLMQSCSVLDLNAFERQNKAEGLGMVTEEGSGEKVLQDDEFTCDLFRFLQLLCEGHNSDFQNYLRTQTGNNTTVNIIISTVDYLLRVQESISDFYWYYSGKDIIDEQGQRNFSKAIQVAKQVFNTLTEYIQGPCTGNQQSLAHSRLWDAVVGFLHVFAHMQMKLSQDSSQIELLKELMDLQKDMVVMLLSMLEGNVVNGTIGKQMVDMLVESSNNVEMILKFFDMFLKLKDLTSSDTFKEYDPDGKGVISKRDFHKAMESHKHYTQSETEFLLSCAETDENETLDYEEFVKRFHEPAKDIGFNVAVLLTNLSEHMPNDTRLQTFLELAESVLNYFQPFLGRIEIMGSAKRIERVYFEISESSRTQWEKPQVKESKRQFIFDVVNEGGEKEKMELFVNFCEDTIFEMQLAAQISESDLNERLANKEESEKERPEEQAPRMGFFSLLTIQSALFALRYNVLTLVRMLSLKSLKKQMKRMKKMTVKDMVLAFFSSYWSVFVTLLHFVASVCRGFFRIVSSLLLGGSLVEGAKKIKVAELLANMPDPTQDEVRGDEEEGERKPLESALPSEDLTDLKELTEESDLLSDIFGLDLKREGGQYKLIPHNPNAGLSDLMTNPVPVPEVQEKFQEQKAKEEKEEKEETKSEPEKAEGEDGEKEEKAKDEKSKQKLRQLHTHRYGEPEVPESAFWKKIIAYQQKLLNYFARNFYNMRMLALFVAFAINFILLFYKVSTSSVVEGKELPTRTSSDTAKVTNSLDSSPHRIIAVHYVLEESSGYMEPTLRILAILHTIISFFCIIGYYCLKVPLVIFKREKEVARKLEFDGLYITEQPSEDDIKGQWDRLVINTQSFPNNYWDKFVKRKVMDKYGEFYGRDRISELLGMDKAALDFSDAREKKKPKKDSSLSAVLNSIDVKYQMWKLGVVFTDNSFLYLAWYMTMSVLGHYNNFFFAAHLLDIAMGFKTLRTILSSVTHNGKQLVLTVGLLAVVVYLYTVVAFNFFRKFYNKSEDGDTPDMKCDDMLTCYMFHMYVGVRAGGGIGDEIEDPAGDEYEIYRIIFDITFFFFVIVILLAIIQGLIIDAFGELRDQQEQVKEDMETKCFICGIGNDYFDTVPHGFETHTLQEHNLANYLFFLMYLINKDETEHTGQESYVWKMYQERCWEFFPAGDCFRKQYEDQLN

SMILES	latency to find and reach the hidden platform [1] [s]	crossing of the blood-brain barrier (BBB) [2]	hippocampal FDG metabolism (MI mice [3])	PKA activity (adrenergic pathway)	brain norepinephrine (adrenergic pathway)	other results
COc1ccc2c(c1)CN(C)CCS2 [S107]	20 ± 2	BBB-permeant	114±13	no effect	no effect	target crossings ([1]; 60-s probe trial day 5, MI 2.4±0.3, SHAM 4.6±0.3): 4.2±0.3; time spent in the target quadrant ([1]; 60-s probe trial day 5, MI 17±1 s, SHAM 25±2 s): 26 ± 2 s
COc1ccc2c(c1)CN(Cc1ccc(C(=O)O)cc1)CCS2 [Compound 1]						effect on primed state of leaky channels (RyR2 [4]): reverse the primed state of leaky channels toward a fully closed state
CC(C)NCC(O)c1ccc(O)c(O)c1 (centres unmarked) [isoproterenol]						caffeine-induced Ca2+ release (RyR2 [5]): small Ca^2+ release
COc1ccc2c(c1)CN(C(=O)C(=O)O)CCS2 [ARM036]	29 ± 3	does not cross the blood-brain barrier	80±8	no effect	no effect	NOX2 binding to hippocampal RyR2 (TGF-β pathway): no effect; TGF-β levels (TGF-β pathway): no effect; phosphorylation of SMAD3 (TGF-β pathway): no effect; discrimination index [6]: 15%±3%; abnormal behaviors in open field test (time center versus periphery) and EPM test (time open-arm versus closed-arm) [7]: no effect; LTP (hippocampal synaptic plasticity) (MI mice [8]): no effect
